These results are taken from patent US7262202B2, “Inhibitors of cyclin dependent kinases as anti-cancer agent” (Cyclacel Limited, priority 2001, dated 2007).

The test system of one data set is Saos-2. Put plainly: 72-h MTT cellular proliferation assay, Saos-2. Type of data set: cell-based. As to conditions: human tumour cell line Saos-2, 72-h MTT; read-out: Cytotoxicity (IC50, μM) Saos-2. The text has this: (§1) Selected compounds from the above examples were subjected to a standard cellular proliferation assay using a range of different human tumour cell lines.

A further data set addresses T1, CDK2/cyclin E (Homo sapiens, UniProt P24941).
T1 construct: His; made in house; host or cells: Sf9 insect cells (baculovirus)
Put plainly: CDK2/Cyclin E kinase assay (GST-Rb phosphorylation, radiolabelled ATP).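 Also: enzyme was His-tagged CDK2/cyclin E co-expressed in baculovirus-infected Sf9 insect cells and purified over a metal-chelate column.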 Type of data set: biochemical.

Another data set concerns A549. As to the kind of experiment: 72-h MTT cellular proliferation assay, A549. The data set is classed as cell-based. As to conditions: human tumour cell line A549, 72-h MTT; read-out: Cytotoxicity (IC50, μM) A549.
From the text: as §1

Another data set deals with human tumour cell lines. As to the kind of experiment: cell-based anti-proliferative assays. The text has this: These assays, including methods for their performance, are described in more detail in Example 3. Using such cell line and enzymes assays it may be determined whether a compound is anti-proliferative in the context of the present invention.
(§2) Selected compounds from the above examples were subjected to a standard cellular proliferation assay using a range of different human tumour cell lines. Standard 72-h MTT (thiazolyl blue; 3-[4,5-dimethylthiazol-2-yl]-2,5-diphenyltetrazolium bromide) assays were performed (Haselsberger, K.; Peterson, D. C.; Thomas, D. G.; Darling, J. L. Anti Cancer Drugs 1996, 7, 331–8; Loveland, B. E.; Johns, T. G.; Mackay, I. R.; Vaillant, F.; Wang, Z. X.; Hertzog, P. J. Biochemistry International 1992, 27, 501–10). Human tumour cell lines were obtained from the ATCC (American Type Culture Collection, 10801 University Boulevard, Manessas, Va. 20110-2209, USA).

Another data set relates to HT29. As to the kind of experiment: 72-h MTT cellular proliferation assay, HT29. The data set is classed as cell-based. Conditions: HT-29; human tumour cell line HT29, 72-h MTT; read-out: Cytotoxicity (IC50, μM) HT29.
From the text: as §1

Data set [1] can be described thus: 72-h MTT cellular proliferation assay, IMR90. The data set is classed as cell-based. Conditions: human, IMR90 cells (non-transformed); non-transformed cell line IMR90, 72-h MTT; read-out: Cytotoxicity (IC50, μM) IMR90. How it is done: as §2
Data set [2] can be described thus: 72-h MTT cellular proliferation assay, W138. The data set is classed as cell-based. As to conditions: human, W138 cells (non-transformed); non-transformed cell line W138, 72-h MTT; read-out: Cytotoxicity (IC50, μM) W138. How it is done: as §2
Data set [3] is described as follows: 72-h MTT cellular proliferation assay, Hs27. Type of data set: cell-based. Conditions: human, Hs27 cells (non-transformed); non-transformed cell line Hs27, 72-h MTT; read-out: Cytotoxicity (IC50, μM) Hs27. How it is done:
as §2

In another data set the test system is HeLa. Put plainly: 72-h MTT cellular proliferation assay, HeLa. The data set is classed as cell-based. Conditions: human tumour cell line HeLa, read-out: Cytotoxicity (IC50, μM) HeLa.
From the text: as §1

The next data set has as its system MCF7. Put plainly: 72-h MTT cellular proliferation assay, MCF7. The data set is classed as cell-based. As to conditions: human tumour cell line MCF7, 72-h MTT; read-out: Cytotoxicity (IC50, μM) MCF7.
From the text: as §1

Setting [4] is: bound stated, (±0.05), read-out: IC50 for cdk2/cyclinE.

The structures appear in SMILES notation. pIC50: −log10 of the molar value. Read-outs that look alike come from different tables or passages of the source.

The molecule `Cc1c[nH]c(C)c1-c1ccnc(Nc2ccc(C(F)(F)F)cc2)n1` [Compound 12, [4-(2,4-Dimethyl-1H-pyrrol-3-yl)-pyrimidin-2-yl]-(4-trifluoromethyl-phenyl)-amine] yielded a melting point of 165.6 to 167.9 °C. Further, the IC50 in the data set with Saos-2 turned out to be 17 µM. Besides, the pIC50 on CDK2/cyclin E (setting [4]) is over 6.00. In addition, on CDK2/cyclin E (read-out: CDK2/cyclin E (IC50)), the pIC50 is 6.05. For the same molecule, in the data set with A549, the IC50 came out at 15 µM. Besides, the “anti-proliferative activity in cell-based assays” value (from here on “anti-proliferative activity”) in the data set with human tumour cell lines was “particularly effective anti-proliferative agents”. Besides, the half-maximal inhibitory concentration (IC50) with HT29 was found to be 3.1 µM.
As for `Cc1[nH]c(C#N)c(C)c1-c1ccnc(Nc2ccc(F)cc2)n1` [Compound 32, 4-[2-(4-Fluoro-phenylamino)-pyrimidin-4-yl]-3,5-dimethyl-1H-pyrrole-2-carbonitrile], the pIC50 at CDK2/cyclin E (setting [4]) was over 6.30. Moreover, the IC50 at 72 h in data set [1] was 20.8 µM; in data set [2] it was 9.6 µM; in data set [3], 15.1 µM. For the same molecule, the “anti-proliferative activity” value in the data set with human tumour cell lines is given as “particularly effective anti-proliferative agents”.
For the molecule `Cc1[nH]c(C#N)c(C)c1-c1ccnc(Nc2ccc(C(F)(F)F)cc2)n1` [Compound 34, 3,5-Dimethyl-4-[2-(4-trifluoromethyl-phenylamino)-pyrimidin-4-yl]-H-pyrrole-2-carbonitrile], the melting point was in the range of 195.6 to 198.9 °C. Also, the 50% inhibitory concentration (IC50) with Saos-2 turned out to be 3.4 µM. For the same molecule, the pIC50 at CDK2/cyclin E (setting [4]) is over 6.30. The IC50 with A549 amounted to 3.64 µM. In addition, the “anti-proliferative activity” value in the data set on human tumour cell lines was “particularly effective anti-proliferative agents”. For the same molecule, the IC50 in the data set on HT29 came to 0.95 µM.
In turn, `Cc1[nH]c(C#N)c(C)c1-c1ccnc(Nc2ccc(I)cc2)n1` [Compound 35, 4-[2-(4-Iodo-phenylamino)-pyrimidin-4-yl]-3,5-dimethyl-1H-pyrrole-2-carbonitrile] yielded a melting point of 178.3 to 181.2 °C. The concentration for half-maximal inhibition (IC50) in the data set with Saos-2 stood at 0.75 µM. Also, the pIC50 on CDK2/cyclin E (setting [4]) was over 6.30. Besides, in the data set on A549, the concentration for half-maximal inhibition (IC50) is 0.51 µM. For the same molecule, the IC50 at 72 h in data set [1] stood at 37.3 µM. For the same molecule, in the data set on HeLa, the IC50 came out at 0.09 µM. Besides, the “anti-proliferative activity” value with human tumour cell lines is listed as “particularly effective anti-proliferative agents”. In addition, in the data set on MCF7, the IC50 was 0.45 µM. Further, the half-inhibitory concentration (IC50) at 72 h in data set [2] was 21.3 µM. In addition, the IC50 at 72 h in data set [3] amounted to 35.1 µM. Moreover, the IC50 in the data set on HT29 stood at 0.11 µM.
`Cc1ccc(Nc2nccc(-c3c(C)[nH]c(C#N)c3C)n2)cc1I` [Compound 38, 4-[2-(3-Iodo-4-methyl-phenylamino)-pyrimidin-4-yl]-3,5-dimethyl-1H-pyrrole-2-carbonitrile]: the melting point was in the range of 189.5 to 191.7 °C. Also, the half-maximal inhibitory concentration (IC50) with Saos-2 is 3.12 µM. Moreover, the pIC50 on CDK2/cyclin E (setting [4]) is over 6.00. Further, the half-inhibitory concentration (IC50) with A549 was determined as 3.6 µM. For the same molecule, the “anti-proliferative activity” value with human tumour cell lines was “particularly effective anti-proliferative agents”. Besides, in the data set with HT29, the IC50 came to 0.72 µM.
With `Cc1cc(Nc2nccc(-c3c(C)[nH]c(C#N)c3C)n2)ccc1Cl` [Compound 39, 4-[2-(4-Chloro-3-methyl-phenylamino)-pyrimidin-4-yl]-3,5-dimethyl-1H-pyrrole-2-carbonitrile], the melting point was in the range of 194.2 to 197.9 °C. Besides, the IC50 in the data set with Saos-2 is 5.88 µM. Also, the pIC50 at CDK2/cyclin E (setting [4]) was over 6.00. Besides, the pIC50 at CDK2/cyclin E (read-out: CDK2/cyclin E (IC50)) was 5.99. The concentration for half-maximal inhibition (IC50) in the data set on A549 came out at 4.37 µM. Also, the “anti-proliferative activity” value in the data set with human tumour cell lines was “particularly effective anti-proliferative agents”. In addition, in the data set with HT29, the IC50 was determined as 3.27 µM.
Regarding `Cc1ccc(Nc2nccc(-c3c(C)[nH]c(C#N)c3C)n2)cc1F` [Compound 42, 4-[2-(3-Fluoro-4-methyl-phenylamino)-pyrimidin-4-yl]-3,5-dimethyl-1H-pyrrole-2-carbonitrile], the melting point was in the range of 177.7 to 179.9 °C. Also, in the data set on Saos-2, the half-maximal inhibitory concentration (IC50) worked out at 2.23 µM. Also, the pIC50 at CDK2/cyclin E (setting [4]) was over 6.00. The IC50 with A549 worked out at 1.49 µM. In addition, the “anti-proliferative activity” value in the data set on human tumour cell lines is reported as “particularly effective anti-proliferative agents”. The IC50 in the data set on HT29 amounted to 0.28 µM.
For the molecule `Cc1[nH]c(C#N)c(C)c1-c1ccnc(Nc2ccc(N(C)C)cc2)n1` [Compound 43, 4-[2-(4-Dimethylamino-phenylamino)-pyrimidin-4-yl]-3,5-dimethyl-1H-pyrrole-2-carbonitrile], the melting point lay in the range of 190.6 to 193.7 °C. Besides, the half-maximal inhibitory concentration (IC50) in the data set on Saos-2 was 1.5 µM. The pIC50 at CDK2/cyclin E (setting [4]) was over 6.00. In addition, the half-inhibitory concentration (IC50) in the data set on A549 was 1.41 µM. In addition, the “anti-proliferative activity” value in the data set on human tumour cell lines is “particularly effective anti-proliferative agents”. Besides, in the data set with HT29, the IC50 came to 0.17 µM.
`Cc1[nH]c([N+](=O)[O-])c(C)c1-c1ccnc(Nc2ccc(N(C)C)cc2)n1` [Compound 48, N-[4-(2,4-Dimethyl-5-nitro-1H-pyrrol-3-yl)-pyrimidin-2-yl]-N′,N′-dimethyl-benzene-1,4-diamine] showed a melting point of 265 to 268 °C. Further, the IC50 with Saos-2 is 2.65 µM. Further, at CDK2/cyclin E (setting [4]), the pIC50 was over 6.00. The IC50 with A549 was 3.05 µM. Also, the “anti-proliferative activity” value in the data set on human tumour cell lines was “particularly effective anti-proliferative agents”. Further, the half-maximal inhibitory concentration (IC50) in the data set with HT29 is 0.61 µM.
The molecule `Cc1[nH]c(Br)c(C)c1-c1ccnc(Nc2cccc([N+](=O)[O-])c2)n1` [Compound 51, [4-(5-Bromo-2,4-dimethyl-1H-pyrrol-3-yl)-pyrimidin-2-yl]-(3-nitro-phenyl)-amine] displayed a melting point of 198.1 to 203 °C. In addition, in the data set on Saos-2, the half-maximal inhibitory concentration (IC50) amounted to 12.4 µM. On CDK2/cyclin E (setting [4]), the pIC50 is over 6.30. Moreover, the 50% inhibitory concentration (IC50) with A549 was determined as 7.56 µM. For the same molecule, the “anti-proliferative activity” value in the data set on human tumour cell lines was “particularly effective anti-proliferative agents”. Besides, the 50% inhibitory concentration (IC50) in the data set with HT29 was 2.92 µM.
As for `Cc1[nH]c(CN(C)C)c(C)c1-c1ccnc(Nc2ccc(F)cc2)n1` [Compound 54, [4-(5-Dimethylaminomethyl-2,4-dimethyl-1H-pyrrol-3-yl)-pyrimidin-2-yl]-(4-fluoro-phenyl)-amine], the melting point fell in the range of 88.4 to 91.6 °C. For the same molecule, in the data set with Saos-2, the IC50 came to 0.7 µM. Moreover, the pIC50 on CDK2/cyclin E (setting [4]) is over 6.30. Further, the IC50 with A549 worked out at 2.76 µM. Also, the “anti-proliferative activity” value with human tumour cell lines is “particularly effective anti-proliferative agents”. Also, the half-inhibitory concentration (IC50) in the data set on HT29 amounted to 3.2 µM.
